# Measured values from ChEMBL document CHEMBL4622942, “Design, synthesis and biological evaluation of potent EGFR kinase inhibitors against 19D/T790M/C797S mutation” (Bioorg Med Chem Lett, 2020).
# Active and inactive are the calls of the source. The rule behind the calls is not given here.
# How the values were obtained:
# [1] = target: Epidermal growth factor receptor (Homo sapiens, UniProt P00533, C797S/L858R/T790M); assay: Inhibition of EGFR L858R/T790M/C797S mutant (unknown origin) by ELISA
# [2] = target: Epidermal growth factor receptor (Homo sapiens, UniProt P00533, L858R/T790M); assay: Inhibition of EGFR L858R/T790M mutant (unknown origin) by ELISA
# [3] = target: Epidermal growth factor receptor (Homo sapiens, UniProt P00533, C797S/EX19DEL/T790M); assay: Inhibition of EGFR 19D/T790M/C797S mutant (unknown origin) by ELISA
# [4] = target: Epidermal growth factor receptor (Homo sapiens, UniProt P00533); assay: Inhibition of wild type EGFR (unknown origin) by ELISA
# BaF3 [5] = assay: Antiproliferative activity against mouse BAF3 cells harboring EGFR 19D/T790M/C797S mutant assessed as reduction in cell viability by CCK8 assay; format: functional, cell-based
# NCI-H1975 = assay: Antiproliferative activity against human NCI-H1975 cells harboring EGFR L858R/T790M mutant assessed as reduction in cell viability by CCK8 assay; format: functional, cell-based
# BaF3 [6] = assay: Cell cycle arrest in mouse BAF3 cells harboring EGFR 19D/T790M/C797S mutant assessed as accumulation at G1 phase at 1 uM measured after 24 hrs by flow cytometry analysis (reference value: 39.62 %); format: functional
# BaF3 [7] = assay: Cell cycle arrest in mouse BAF3 cells harboring EGFR 19D/T790M/C797S mutant assessed as accumulation at S phase at 1 uM measured after 24 hrs by flow cytometry analysis (reference value: 52.43 %); format: functional
# BaF3 [8] = assay: Cell cycle arrest in mouse BAF3 cells harboring EGFR 19D/T790M/C797S mutant assessed as accumulation at G2 phase at 1 uM measured after 24 hrs by flow cytometry analysis (reference value: 7.94 %); format: functional
# A-431 = assay: Antiproliferative activity against human A431 cells overexpressing EGFR assessed as reduction in cell viability by CCK8 assay; format: functional, cell-based
# [9] = Selectivity index, ratio of IC50 for human A431 cells overexpressing EGFR assessed as reduction in cell viability by CCK8 assay to IC50 for mouse BAF3 cells harboring EGFR 19D/T790M/C797S assessed as reduction in cell viability by CCK8 assay; format: functional
# BaF3 [10] = assay: Cell cycle arrest in mouse BAF3 cells harboring EGFR 19D/T790M/C797S mutant assessed as accumulation at G2 phase at 10 uM measured after 24 hrs by flow cytometry analysis (reference value: 7.94 %); format: functional
# BaF3 [11] = assay: Cell cycle arrest in mouse BAF3 cells harboring EGFR 19D/T790M/C797S mutant assessed as accumulation at G1 phase at 20 uM measured after 24 hrs by flow cytometry analysis (reference value: 39.62 %); format: functional
# BaF3 [12] = assay: Cell cycle arrest in mouse BAF3 cells harboring EGFR 19D/T790M/C797S mutant assessed as accumulation at G1 phase measured after 24 hrs by flow cytometry analysis; format: functional, cell-based
# BaF3 [13] = assay: Cell cycle arrest in mouse BAF3 cells harboring EGFR 19D/T790M/C797S mutant assessed as accumulation at G2 phase at 20 uM measured after 24 hrs by flow cytometry analysis (reference value: 7.94 %); format: functional
# BaF3 [14] = assay: Induction of apoptosis in mouse BAF3 cells harboring EGFR 19D/T790M/C797S mutant assessed as early apoptotic cells at 1 uM measured after 24 hrs by annexinV-FITC/propidium iodide staining based flow cytometry analysis (reference value: 15.09 %); format: functional
# [15] = test system: Epidermal growth factor receptor (Homo sapiens), P00533 [UNDEFINED MUTATION]; assay: Inhibition of EGFR 19D/T790M/C797S mutant (unknown origin) expressed in mouse BAF3 cells assessed as reduction in EGF-stimulated Akt phosphorylation at 5 to 100 uM pretreated for 3 hrs followed by EGF stimulation by Western blot analysis; format: cell-based
# BaF3 [16] = assay: Induction of apoptosis in mouse BAF3 cells harboring EGFR 19D/T790M/C797S mutant assessed as necrotic cells at 1 uM measured after 24 hrs by annexinV-FITC/propidium iodide staining based flow cytometry analysis (reference value: 0.13 %); format: functional
# BaF3 [17] = assay: Induction of apoptosis in mouse BAF3 cells harboring EGFR 19D/T790M/C797S mutant assessed as early apoptotic cells at 10 uM measured after 24 hrs by annexinV-FITC/propidium iodide staining based flow cytometry analysis (reference value: 15.09 %); format: functional
# BaF3 [18] = assay: Induction of apoptosis in mouse BAF3 cells harboring EGFR 19D/T790M/C797S mutant assessed as live cells at 50 uM measured after 24 hrs by annexinV-FITC/propidium iodide staining based flow cytometry analysis (reference value: 82.74 %); format: functional
# BaF3 [19] = assay: Induction of apoptosis in mouse BAF3 cells harboring EGFR 19D/T790M/C797S mutant assessed as early apoptotic cells at 50 uM measured after 24 hrs by annexinV-FITC/propidium iodide staining based flow cytometry analysis (reference value: 15.09 %); format: functional
# BaF3 [20] = assay: Induction of apoptosis in mouse BAF3 cells harboring EGFR 19D/T790M/C797S mutant assessed as late apoptotic cells at 50 uM measured after 24 hrs by annexinV-FITC/propidium iodide staining based flow cytometry analysis (reference value: 2.03 %); format: functional
# BaF3 [21] = assay: Cell cycle arrest in mouse BAF3 cells harboring EGFR 19D/T790M/C797S mutant assessed as accumulation at S phase at 20 uM measured after 24 hrs by flow cytometry analysis (reference value: 52.43 %); format: functional
# [22] = test system: Epidermal growth factor receptor (Homo sapiens), P00533 [UNDEFINED MUTATION]; assay: Inhibition of EGFR 19D/T790M/C797S mutant (unknown origin) expressed in mouse BAF3 cells assessed as reduction in EGF-stimulated ERK phosphorylation pretreated for 3 hrs followed by EGF stimulation by Western blot analysis; format: cell-based
# BaF3 [23] = assay: Induction of apoptosis in mouse BAF3 cells harboring EGFR 19D/T790M/C797S mutant assessed as necrotic cells at 50 uM measured after 24 hrs by annexinV-FITC/propidium iodide staining based flow cytometry analysis (reference value: 0.13 %); format: functional
# BaF3 [24] = assay: Induction of apoptosis in mouse BAF3 cells harboring EGFR 19D/T790M/C797S mutant measured after 24 hrs by annexinV-FITC/propidium iodide staining based flow cytometry analysis; format: functional, cell-based
# BaF3 [25] = assay: Induction of apoptosis in mouse BAF3 cells harboring EGFR 19D/T790M/C797S mutant assessed as necrotic cells at 10 uM measured after 24 hrs by annexinV-FITC/propidium iodide staining based flow cytometry analysis (reference value: 0.13 %); format: functional
# [26] = test system: Epidermal growth factor receptor (Homo sapiens), P00533 [UNDEFINED MUTATION]; assay: Inhibition of EGFR 19D/T790M/C797S mutant (unknown origin) expressed in mouse BAF3 cells assessed as reduction in EGF-stimulated EGFR phosphorylation pretreated for 3 hrs followed by EGF stimulation by Western blot analysis; format: cell-based
# BaF3 [27] = assay: Induction of apoptosis in mouse BAF3 cells harboring EGFR 19D/T790M/C797S mutant assessed as late apoptotic cells at 1 uM measured after 24 hrs by annexinV-FITC/propidium iodide staining based flow cytometry analysis (reference value: 2.03 %); format: functional
# BaF3 [28] = assay: Induction of apoptosis in mouse BAF3 cells harboring EGFR 19D/T790M/C797S mutant assessed as live cells at 1 uM measured after 24 hrs by annexinV-FITC/propidium iodide staining based flow cytometry analysis (reference value: 82.74 %); format: functional
# BaF3 [29] = assay: Cell cycle arrest in mouse BAF3 cells harboring EGFR 19D/T790M/C797S mutant assessed as accumulation at G1 phase at 10 uM measured after 24 hrs by flow cytometry analysis (reference value: 39.62 %); format: functional
# BaF3 [30] = assay: Induction of apoptosis in mouse BAF3 cells harboring EGFR 19D/T790M/C797S mutant assessed as late apoptotic cells at 10 uM measured after 24 hrs by annexinV-FITC/propidium iodide staining based flow cytometry analysis (reference value: 2.03 %); format: functional
# BaF3 [31] = assay: Cell cycle arrest in mouse BAF3 cells harboring EGFR 19D/T790M/C797S mutant assessed as accumulation at S phase at 10 uM measured after 24 hrs by flow cytometry analysis (reference value: 52.43 %); format: functional
# BaF3 [32] = assay: Induction of apoptosis in mouse BAF3 cells harboring EGFR 19D/T790M/C797S mutant assessed as live cells at 10 uM measured after 24 hrs by annexinV-FITC/propidium iodide staining based flow cytometry analysis (reference value: 82.74 %); format: functional
# [33] = Selectivity index, ratio of IC50 for human A431 cells overexpressing EGFR assessed as reduction in cell viability by CCK8 assay to IC50 for human NCI-H1975 cells harboring EGFR […]/T790M assessed as reduction in cell viability by CCK8 assay; format: functional
# Chain of Epidermal growth factor receptor (Homo sapiens, UniProt P00533, L858R/T790M) (P00533 25-1210 T790M/L858R limits assumed): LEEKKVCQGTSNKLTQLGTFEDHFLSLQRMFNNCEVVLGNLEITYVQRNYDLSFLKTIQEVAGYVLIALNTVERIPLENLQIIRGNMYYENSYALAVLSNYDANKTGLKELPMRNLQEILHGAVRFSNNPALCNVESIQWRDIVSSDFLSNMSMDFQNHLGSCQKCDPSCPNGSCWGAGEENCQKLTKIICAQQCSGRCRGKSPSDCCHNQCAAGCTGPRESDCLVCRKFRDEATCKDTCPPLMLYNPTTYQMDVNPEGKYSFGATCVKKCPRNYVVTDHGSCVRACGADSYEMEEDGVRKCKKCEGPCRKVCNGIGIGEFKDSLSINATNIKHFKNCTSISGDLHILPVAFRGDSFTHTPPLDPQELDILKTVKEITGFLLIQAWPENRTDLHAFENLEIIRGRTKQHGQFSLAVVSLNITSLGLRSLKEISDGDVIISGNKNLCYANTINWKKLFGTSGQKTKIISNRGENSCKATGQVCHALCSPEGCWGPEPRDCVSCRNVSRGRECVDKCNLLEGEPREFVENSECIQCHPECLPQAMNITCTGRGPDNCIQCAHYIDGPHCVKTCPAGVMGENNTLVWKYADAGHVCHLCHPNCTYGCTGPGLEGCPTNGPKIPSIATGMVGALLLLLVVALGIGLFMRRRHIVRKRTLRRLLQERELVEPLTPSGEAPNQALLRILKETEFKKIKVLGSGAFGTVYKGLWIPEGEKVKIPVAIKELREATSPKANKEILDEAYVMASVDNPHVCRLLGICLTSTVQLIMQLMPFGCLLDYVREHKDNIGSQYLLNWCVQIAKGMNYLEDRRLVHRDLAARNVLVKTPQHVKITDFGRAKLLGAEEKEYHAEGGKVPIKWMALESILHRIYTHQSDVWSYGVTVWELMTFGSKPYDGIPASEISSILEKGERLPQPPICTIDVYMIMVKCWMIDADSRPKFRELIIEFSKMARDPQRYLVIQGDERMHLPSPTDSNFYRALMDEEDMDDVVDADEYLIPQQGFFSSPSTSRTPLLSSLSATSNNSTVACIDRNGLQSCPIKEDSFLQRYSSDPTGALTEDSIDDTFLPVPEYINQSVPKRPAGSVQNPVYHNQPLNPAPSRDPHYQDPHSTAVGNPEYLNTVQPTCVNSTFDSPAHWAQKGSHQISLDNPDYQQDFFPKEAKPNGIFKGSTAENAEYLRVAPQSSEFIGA
# Chain of Epidermal growth factor receptor (Homo sapiens, UniProt P00533, C797S/L858R/T790M) (P00533 25-1210 T790M/C797S/L858R limits assumed): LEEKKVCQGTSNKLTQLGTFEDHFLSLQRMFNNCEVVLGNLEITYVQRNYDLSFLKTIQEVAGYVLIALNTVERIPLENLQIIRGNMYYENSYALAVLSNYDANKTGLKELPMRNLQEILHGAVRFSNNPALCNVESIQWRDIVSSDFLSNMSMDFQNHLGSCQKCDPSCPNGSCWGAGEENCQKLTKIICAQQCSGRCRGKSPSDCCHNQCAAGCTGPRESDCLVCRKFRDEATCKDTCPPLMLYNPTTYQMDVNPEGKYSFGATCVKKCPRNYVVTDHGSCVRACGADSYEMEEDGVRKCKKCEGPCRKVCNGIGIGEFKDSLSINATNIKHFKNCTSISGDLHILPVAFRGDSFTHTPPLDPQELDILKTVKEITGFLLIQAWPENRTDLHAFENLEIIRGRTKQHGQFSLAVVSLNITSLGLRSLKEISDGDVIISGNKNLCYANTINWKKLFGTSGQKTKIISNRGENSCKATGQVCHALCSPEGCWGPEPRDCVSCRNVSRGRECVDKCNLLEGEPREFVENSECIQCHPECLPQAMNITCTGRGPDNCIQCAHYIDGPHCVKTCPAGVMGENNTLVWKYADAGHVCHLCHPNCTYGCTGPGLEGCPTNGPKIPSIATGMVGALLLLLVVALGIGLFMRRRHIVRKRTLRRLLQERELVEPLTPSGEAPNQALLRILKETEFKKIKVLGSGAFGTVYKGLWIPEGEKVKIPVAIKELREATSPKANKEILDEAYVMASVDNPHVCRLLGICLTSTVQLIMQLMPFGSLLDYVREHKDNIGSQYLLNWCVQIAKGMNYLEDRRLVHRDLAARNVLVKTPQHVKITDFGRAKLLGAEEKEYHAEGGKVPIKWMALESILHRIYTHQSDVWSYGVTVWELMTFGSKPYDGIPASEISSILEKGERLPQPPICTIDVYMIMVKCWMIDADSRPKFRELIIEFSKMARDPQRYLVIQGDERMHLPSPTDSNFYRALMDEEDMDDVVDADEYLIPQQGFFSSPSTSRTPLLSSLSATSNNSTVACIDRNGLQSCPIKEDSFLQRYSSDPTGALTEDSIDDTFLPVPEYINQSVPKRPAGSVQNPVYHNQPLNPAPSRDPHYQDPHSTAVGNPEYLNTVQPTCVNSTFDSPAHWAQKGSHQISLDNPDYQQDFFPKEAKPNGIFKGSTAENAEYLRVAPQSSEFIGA
# Chain of Epidermal growth factor receptor (Homo sapiens), P00533 [UNDEFINED MUTATION] (P00533 whole entry, looked up, stated change not applied): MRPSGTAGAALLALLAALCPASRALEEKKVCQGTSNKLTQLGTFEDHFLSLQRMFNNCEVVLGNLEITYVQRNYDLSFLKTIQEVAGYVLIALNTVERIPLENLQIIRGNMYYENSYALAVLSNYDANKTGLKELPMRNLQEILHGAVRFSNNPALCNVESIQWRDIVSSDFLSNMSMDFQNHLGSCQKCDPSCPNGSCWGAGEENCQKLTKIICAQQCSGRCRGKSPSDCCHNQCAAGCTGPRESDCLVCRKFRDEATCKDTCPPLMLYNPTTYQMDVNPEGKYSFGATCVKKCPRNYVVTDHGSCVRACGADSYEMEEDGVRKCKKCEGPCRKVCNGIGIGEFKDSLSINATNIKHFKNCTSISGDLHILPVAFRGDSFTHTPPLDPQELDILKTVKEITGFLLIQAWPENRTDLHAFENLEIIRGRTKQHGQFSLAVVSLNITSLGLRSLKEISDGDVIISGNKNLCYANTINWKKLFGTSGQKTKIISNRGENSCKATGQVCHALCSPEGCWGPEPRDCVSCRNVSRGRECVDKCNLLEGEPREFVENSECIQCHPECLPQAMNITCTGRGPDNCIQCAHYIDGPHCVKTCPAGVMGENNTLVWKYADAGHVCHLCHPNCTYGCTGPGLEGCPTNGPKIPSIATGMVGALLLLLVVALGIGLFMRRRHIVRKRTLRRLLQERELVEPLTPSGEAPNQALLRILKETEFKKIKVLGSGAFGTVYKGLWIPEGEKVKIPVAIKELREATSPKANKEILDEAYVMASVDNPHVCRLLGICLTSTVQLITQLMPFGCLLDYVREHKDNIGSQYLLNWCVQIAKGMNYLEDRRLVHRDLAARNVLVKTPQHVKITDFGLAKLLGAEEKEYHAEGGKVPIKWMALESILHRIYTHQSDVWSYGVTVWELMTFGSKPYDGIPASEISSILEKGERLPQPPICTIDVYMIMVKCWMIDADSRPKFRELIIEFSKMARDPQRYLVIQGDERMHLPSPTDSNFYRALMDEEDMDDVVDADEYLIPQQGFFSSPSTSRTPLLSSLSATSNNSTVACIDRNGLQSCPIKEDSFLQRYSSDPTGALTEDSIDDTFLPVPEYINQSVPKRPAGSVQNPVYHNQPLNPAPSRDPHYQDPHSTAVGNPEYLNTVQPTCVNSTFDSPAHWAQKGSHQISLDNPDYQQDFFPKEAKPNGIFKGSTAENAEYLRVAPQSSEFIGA
# Chain of Epidermal growth factor receptor (Homo sapiens, UniProt P00533) (P00533 whole entry): as the sequence (P00533 whole entry, looked up, stated change not applied) above
smiles,measurement,setting,value
CCC(=O)Nc1cc(Nc2nccc(-c3cn(CCCO)c4ccccc34)n2)c(OC)cc1F,IC50,[1],422 nM
same,IC50,[2],127 nM
same,IC50,[3],72.5 nM
same,IC50,[4],> 1000 nM
CCC(=O)Nc1cc(Nc2nccc(-c3cn(CCO)c4ccccc34)n2)c(OC)cc1F,IC50,[1],> 1000 nM
same,IC50,[2],170 nM
same,IC50,[3],80.5 nM
same,IC50,[4],> 1000 nM
C=CC(=O)Nc1cc(Nc2nccc(-c3cn(C)c4ccccc34)n2)c(OC)cc1N(C)CCN(C)C [OSIMERTINIB],IC50,BaF3 [5],5470 nM
same,Activity,BaF3 [6],45.49%
same,Activity,BaF3 [7],45.58%
same,Activity,BaF3 [8],8.93%
CCC(=O)Nc1cc(Nc2nccc(-c3cn(CCCO)c4ccc(F)cc34)n2)c(OC)cc1F,IC50,[1],332 nM
same,IC50,[2],142 nM
same,IC50,[3],40.4 nM
same,IC50,[4],> 1000 nM
COc1cc(N(C)CCN(C)C)ccc1Nc1nccc(-c2cn(CCCO)c3ccccc23)n1,Ratio IC50,[9],2.41
same,IC50,[1],218 nM
same,IC50,[2],157 nM
same,Activity,BaF3 [10],10.25%
same,Activity,BaF3 [11],53.37%
same,IC50,BaF3 [5],8510 nM
same,Activity,BaF3 [12],Dose-dependent effect
same,Activity,BaF3 [13],10.02%
same,Activity,BaF3 [14],17%
same,inhibition,[15],Active
same,IC50,NCI-H1975,16200 nM
same,Activity,BaF3 [16],0.19%
same,Activity,BaF3 [17],24.18%
same,Activity,BaF3 [6],48%
same,Activity,BaF3 [18],1.76%
same,Activity,BaF3 [7],40.51%
same,Activity,BaF3 [19],74.01%
same,Activity,BaF3 [20],23.81%
same,IC50,[3],15.3 nM
same,Activity,BaF3 [21],26.61%
same,inhibition,[22],Dose-dependent effect
same,Activity,BaF3 [23],0.42%
same,Activity,BaF3 [8],10.52%
same,Activity,BaF3 [24],Dose-dependent effect
same,IC50,A-431,20500 nM
same,IC50,[4],> 1000 nM
same,Activity,BaF3 [25],0.4%
same,inhibition,[26],Dose-dependent effect
same,Activity,BaF3 [27],2.74%
same,Activity,BaF3 [28],80.07%
same,Activity,BaF3 [29],51.94%
same,Activity,BaF3 [30],14.53%
same,Activity,BaF3 [31],37.81%
same,Activity,BaF3 [32],60.89%
same,Ratio IC50,[33],1.27
CCC(=O)Nc1cc(Nc2nccc(-c3c[nH]c4c(CCO)cccc34)n2)c(OC)cc1F,IC50,[1],> 1000 nM
same,IC50,[2],208 nM
same,IC50,[3],663 nM
same,IC50,[4],> 1000 nM
CCC(=O)Nc1cc(Nc2nccc(-c3cn(CCCO)c4ccccc34)n2)c(OC)cc1N(C)CCN(C)C,IC50,[1],638 nM
same,IC50,[2],169 nM
same,IC50,[3],73 nM
same,IC50,[4],> 1000 nM
C=CC(=O)Nc1cc(Nc2nccc(-c3cn(CCCO)c4ccccc34)n2)c(OC)cc1F,IC50,[1],> 1000 nM
same,IC50,[2],2.2 nM
same,IC50,[3],17.9 nM
same,IC50,[4],283 nM
